Residues, ends and D or L forms follow the SMILES beside them.
What was measured:
Enterobacter cloacae = assay: Inhibition zone assay (agar plate); assay type: cell-based; details: for inhibition zone diameter (number of plus signs): agar plate, 50 nanomoles/well, 3 mm wells
Y. enterocolitica = assay: Minimal inhibitory concentration (liquid culture); details: inoculum 5000 CFU/ml; a-b = highest concentration with growth - lowest without growth
S. typhimurium = assay: Minimal inhibitory concentration (liquid culture); details: inoculum 8 × 10^6 CFU/ml; a-b = highest concentration with growth - lowest without growth
E. coli 25922 = assay: Minimal inhibitory concentration (liquid culture); details: inoculum 1100 CFU/ml; a-b = highest concentration with growth - lowest without growth
E. coli Apid^R = assay: Minimal inhibitory concentration (liquid culture); assay type: cell-based; details: a-b = highest concentration with growth - lowest without growth
From the text: For details see `Experimental Procedures`.

Klebsiella pneumoniae = assay: Inhibition zone assay (agar plate); assay type: cell-based; details: for inhibition zone diameter (number of plus signs): agar plate, 50 nanomoles/well, 3 mm wells
Yersinia enterocolitica = assay: Inhibition zone assay (agar plate); assay type: cell-based; details: 50 nanomoles/well, 3 mm wells
[1] = system: Escherichia coli (ATCC11775); assay: Inhibition zone assay (agar plate); assay type: cell-based; details: for inhibition zone diameter (number of plus signs): agar plate, 50 nanomoles/well, 3 mm wells
E. coli D22 = assay type: cell-based; details: 50 nanomoles per well (3 mm diameter)
Pseudomonas syringae = assay: Inhibition zone assay (agar plate); assay type: cell-based; details: for inhibition zone diameter (number of plus signs): agar plate, 50 nanomoles/well, 3 mm wells
Rhizobium meliloti = assay: Inhibition zone assay (agar plate); assay type: cell-based; details: 50 nanomoles/well, 3 mm wells
Salmonella typhi = assay type: cell-based; details: 50 nanomoles per well (3 mm diameter)
Erwinia amylovora = assay: Inhibition zone assay (agar plate); assay type: cell-based; details: for inhibition zone diameter (number of plus signs): agar plate, 50 nanomoles/well, 3 mm wells
[2] = system: Agrobacterium tumefaciens; assay: Inhibition zone assay (agar plate); assay type: cell-based; details: for inhibition zone diameter (number of plus signs): agar plate, 50 nanomoles/well, 3 mm wells
[3] = system: Acinetobacter calcoaceticus; assay: Inhibition zone assay (agar plate); assay type: cell-based; details: for inhibition zone diameter (number of plus signs): agar plate, 50 nanomoles/well, 3 mm wells
E. coli 11775 = assay: Minimal inhibitory concentration (liquid culture); details: for minimal inhibitory concentration (MIC): a-b = highest concentration with growth - lowest without growth
Haemophilus influenzae = assay: Inhibition zone assay (agar plate); assay type: cell-based; details: 50 nanomoles/well, 3 mm wells
Shigella dysenteriae = assay type: cell-based; details: 50 nanomoles per well (3 mm diameter)
M. morganii = assay: Minimal inhibitory concentration (liquid culture); details: inoculum 400 CFU/ml; a-b = highest concentration with growth - lowest without growth
E. coli 23802 = assay: Minimal inhibitory concentration (liquid culture); details: inoculum 5000 CFU/ml; a-b = highest concentration with growth - lowest without growth
Salmonella typhimurium = assay: Inhibition zone assay (agar plate); assay type: cell-based; details: for inhibition zone diameter (number of plus signs): agar plate, 50 nanomoles/well, 3 mm wells
Morganella morganii = assay: Inhibition zone assay (agar plate); assay type: cell-based; details: 50 nanomoles/well, 3 mm wells
A. calcoaceticus = assay: Minimal inhibitory concentration (liquid culture); details: inoculum 16 × 10^6 CFU/ml; a-b = highest concentration with growth - lowest without growth
Legionella pneumophila = assay type: cell-based; details: agar plate, 50 nanomoles/well, 3 mm wells
[4] = 50 nanomoles per well (3 mm diameter)

CC(C)C[C@H](NC(=O)[C@H](CCCNC(=N)N)NC(=O)[C@@H]1CCCN1C(=O)[C@H](Cc1c[nH]cn1)NC(=O)[C@@H]1CCCN1C(=O)[C@@H]1CCCN1C(=O)[C@H](CCCNC(=N)N)NC(=O)[C@@H]1CCCN1C(=O)[C@@H]1CCCN1C(=O)[C@@H](NC(=O)[C@H](CCC(N)=O)NC(=O)[C@H](CCC(N)=O)NC(=O)[C@@H]1CCCN1C(=O)[C@H](CCCNC(=N)N)NC(=O)[C@@H]1CCCN1C(=O)[C@H](CCCCN)NC(=O)CN)C(C)C)C(=O)O [Ho +, G K P R P Q Q V P P R P P H P R L] (H-GKPRPQQVPPRPPHPRL-OH)
Inhibition zones: in mm diameter (Enterobacter cloacae; [4]): 15 mm | inhibition zone diameter (number of plus signs) (Enterobacter cloacae): +++ ((+++) 10-14 mm) | minimal inhibitory concentration (MIC) (Y. enterocolitica): 1 to 5 mg/L | minimal inhibitory concentration (MIC) (S. typhimurium): 0.5 to 1 mg/L | minimal inhibitory concentration (MIC) (E. coli 25922): 0.1 to 0.5 mg/L | minimal inhibitory concentration (MIC) (E. coli Apid^R; inoculum 1000 CFU/ml): 1 to 5 mg/L | Inhibition zones: in mm diameter (Klebsiella pneumoniae; [4]): 15 mm | inhibition zone diameter (number of plus signs) (Klebsiella pneumoniae): +++ ((+++) 10-14 mm) | inhibition zone diameter (number of plus signs) (Yersinia enterocolitica): ++++ ((++++) 15-19 mm) | Inhibition zones: in mm diameter [1, 4]: 15 mm | inhibition zone diameter (number of plus signs) [1]: +++ ((+++) 10-14 mm) | Inhibition zones: in mm diameter (E. coli D22): 14 mm | Inhibition zones: in mm diameter (Pseudomonas syringae; [4]): 13 mm | inhibition zone diameter (number of plus signs) (Pseudomonas syringae): +++ ((+++) 10-14 mm) | inhibition zone diameter (number of plus signs) (Rhizobium meliloti): ++++ ((++++) 15-19 mm) | Inhibition zones: in mm diameter (Salmonella typhi): 20 mm | Inhibition zones: in mm diameter (Erwinia amylovora; [4]): 12 mm | inhibition zone diameter (number of plus signs) (Erwinia amylovora): +++ ((+++) 10-14 mm) | Inhibition zones: in mm diameter [2, 4]: 12 mm | inhibition zone diameter (number of plus signs) [2]: ++ ((++) 7-9 mm) | Inhibition zones: in mm diameter [3, 4]: 5 mm | inhibition zone diameter (number of plus signs) [3]: + ((+) 5-6 mm) | minimal inhibitory concentration (MIC) (E. coli 11775; inoculum 16 × 10^6 CFU/ml): 0.1 to 0.5 mg/L | minimal inhibitory concentration (MIC) (E. coli 11775; inoculum 1200 CFU/ml): 0.1 to 0.5 mg/L | inoculum effect on inhibition of viability (E. coli 11775; inoculum sizes differing by four orders of magnitude): equally well | inhibition zone diameter (number of plus signs) (Haemophilus influenzae): +++ ((+++) 10-14 mm) | Inhibition zones: in mm diameter (Shigella dysenteriae): 18 mm | minimal inhibitory concentration (MIC) (M. morganii): 1 to 5 mg/L | minimal inhibitory concentration (MIC) (E. coli 23802): 0.5 to 1 mg/L | Inhibition zones: in mm diameter (Salmonella typhimurium; [4]): 14 mm | inhibition zone diameter (number of plus signs) (Salmonella typhimurium): +++ ((+++) 10-14 mm) | inhibition zone diameter (number of plus signs) (Morganella morganii): ++ ((++) 7-9 mm) | minimal inhibitory concentration (MIC) (A. calcoaceticus): 2 to 10 mg/L

CC[C@H](C)[C@H](NC(=O)[C@H](Cc1ccc(O)cc1)NC(=O)[C@@H](NC(=O)[C@@H]1CCCN1C(=O)[C@H](CCCNC(=N)N)NC(=O)[C@@H](N)CC(N)=O)C(C)C)C(=O)N1CCC[C@H]1C(=O)N1CCC[C@H]1C(=O)N1CCC[C@H]1C(=O)N[C@@H](CCCNC(=N)N)C(=O)N1CCC[C@H]1C(=O)N1CCC[C@H]1C(=O)N[C@@H](Cc1c[nH]cn1)C(=O)N1CCC[C@H]1C(=O)N[C@@H](CCCNC(=N)N)C(=O)N[C@@H](CC(C)C)C(=O)O [Bb-A] (H-NRPVYIPPPRPPHPRL-OH)
inhibition zone diameter (number of plus signs) (Enterobacter cloacae): +++ ((+++) 10-14 mm) | minimal inhibitory concentration (MIC) (Y. enterocolitica): 1 to 5 mg/L | minimal inhibitory concentration (MIC) (S. typhimurium): 0.5 to 1 mg/L | minimal inhibitory concentration (MIC) (E. coli 25922): 1 to 5 mg/L | minimal inhibitory concentration (MIC) (E. coli Apid^R; inoculum 12 × 10^6 CFU/ml): > 40 mg/L | minimal inhibitory concentration (MIC) (E. coli Apid^R; inoculum 1000 CFU/ml): > 40 mg/L | inhibition zone diameter (number of plus signs) (Klebsiella pneumoniae): ++ ((++) 7-9 mm) | inhibition zone diameter (number of plus signs) (Yersinia enterocolitica): +++ ((+++) 10-14 mm) | inhibition zone diameter (number of plus signs) [1]: ++++ ((++++) 15-19 mm) | inhibition zone diameter (number of plus signs) (Pseudomonas syringae): ++++ ((++++) 15-19 mm) | inhibition zone diameter (number of plus signs) (Rhizobium meliloti): +++++ ((+++++) 20 or more min) | inhibition zone diameter (number of plus signs) (Erwinia amylovora): ++++ ((++++) 15-19 mm) | inhibition zone diameter (number of plus signs) [2]: ++++ ((++++) 15-19 mm) | inhibition zone diameter (number of plus signs) [3]: ++ ((++) 7-9 mm) | minimal inhibitory concentration (MIC) (E. coli 11775; inoculum 16 × 10^6 CFU/ml): 1 to 5 mg/L | minimal inhibitory concentration (MIC) (E. coli 11775; inoculum 1200 CFU/ml): 0.1 to 0.5 mg/L | inhibition zone diameter (number of plus signs) (Legionella pneumophila): + ((+) 5-6 mm) | inhibition zone diameter (number of plus signs) (Haemophilus influenzae): ++ ((++) 7-9 mm) | minimal inhibitory concentration (MIC) (M. morganii): > 40 mg/L | minimal inhibitory concentration (MIC) (E. coli 23802): 10 to 20 mg/L | inhibition zone diameter (number of plus signs) (Salmonella typhimurium): +++ ((+++) 10-14 mm) | minimal inhibitory concentration (MIC) (A. calcoaceticus): > 20 mg/L
